Measurements as given in patent US11597703B2, “Caspase inhibitors and methods of use thereof” (Histogen Inc., priority 2019, dated 2023).

Legend:
[1] = biological target: T1, Caspase 6 (Homo sapiens, UniProt P55212); test: Caspase 6 enzymatic inhibition assay, IC50; type: biochemical; settings: read-out: Caspase 6 enzyme inhibition IC50
T1 construct: purchased Enzo Biosciences
T1 sequence (P55212 24-179 limits assumed): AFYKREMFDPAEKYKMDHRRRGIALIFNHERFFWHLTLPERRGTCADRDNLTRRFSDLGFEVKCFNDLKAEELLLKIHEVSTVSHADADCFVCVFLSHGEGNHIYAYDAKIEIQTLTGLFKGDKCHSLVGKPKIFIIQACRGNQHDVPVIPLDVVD
T1 sequence (P55212 194-293 limits assumed): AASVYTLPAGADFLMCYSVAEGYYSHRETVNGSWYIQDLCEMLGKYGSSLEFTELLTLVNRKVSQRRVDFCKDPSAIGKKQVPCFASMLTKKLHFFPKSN
How it was run: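 Following manufacturer-specified conditions, enzymatic activity of purchased human caspase-3, -6 and -7 was measured with compound present to obtain IC50s.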

[2] = tested on: Jurkat cells; test: Prevention of Fas-induced apoptosis in Jurkat cells (WST-8); type: cell-based; settings: Homo sapiens, 10 micromolar, read-out: % Prevention of Fas - induced Jurkat cell apoptosis at 10 micromolar
[3] = tested on: IL-1β; test: Mouse in vivo model of peritoneal inflammation (LPS/ATP), IL-1β in peritoneal lavage fluid; set-up: species or system Mice; settings: mouse peritonitis, IP injection
Description: (§1) Compounds of the present invention were tested in a mouse in vivo model of peritoneal inflammation (peritonitis). Mice were treated with intraperotonial injection of bacterial endotoxin, (LPS). After 1 hour, test compounds were administered by IP injection. After an additional hour, adenosine triphosphate (ATP) was administered by IP injection to further induce the production of the inflammatory cytokines, IL-1β and IL 18. After 0.5 hours, peritoneal lavage fluid was collected and analyzed for IL-1β and IL 18. An inhibitor of the NLRP 3 inflammasome, MCC950, was administered by IP injection and included as a reference test compound. […] IL18 levels were determined by a commercially available ELISA kit following the manufacture's instructions FIG. 3.

[4] = tested on: IL 18; test: Mouse in vivo model of peritoneal inflammation (LPS/ATP), IL 18 in peritoneal lavage fluid; set-up: species or system Mice; settings: mouse peritonitis, IP injection
Description: as §1

[5] = Rodent model of ulcerative colitis induced by TNBS; type: in vivo, Sprague-Dawley rats; settings: for colon histology: Edema, Submucosal, Mean / colon histology: Erosion/ Ulceration, Mean / colon histology: Hyperplasia, Epithelial, Mean / colon histology: Necrosis, Mucosal/ Gland Loss, Mean / colon histology: SUM Score, Mean / colon histology: Subacute Inflammation, Mucosal/ Submucosal, Mean / colon histology: Subacute Inflammation, Transmural/ Serosal, Mean: DAY 7
Description: Compounds of the present invention were tested by oral administration in a rodent model of ulcerative colitis (UC). Ulcerative colitis was induced in Sprague-Dawley rats by instillation of 48 mg/kg […], (TNBS), through the rectum. Testing included 4 active treatment groups and one vehicle control group.
Effect of TNBS-Induced UC in Vehicle Treated Control Group, (Group 1):
Rats were administered of 0.5% vehicle carboxy methylcellulose, (CMC), twice daily starting 24 hours after the instillation of TNBS.
At the termination of the study on DAY 7, the average colon weight in the diseased rats was 5.904±2.208 g, the average colon length was 11.0±1.4 cm and the average distal colon width was 3.1±1.0 cm. Severe adhesions involving multiple intestinal loops, severe stricture resulting in proximal colon distension, ulcers of 6.4±0.4 cm in length, and colonic wall thickness of 3.5±0.8 mm combined to yield an overall colonic score of 11.5±0.8 in the diseased rats. […] Subacute inflammation (sub/mucosal and transmural/serosal were graded separately) was characterized by infiltration and aggregation of neutrophils, eosinophils, lymphocytes, plasma cells, and macrophages. Mucosal necrosis was characterized by damage to, necrosis of, or complete loss of colonic glands. Erosions were characterized by coagulative necrosis or loss of surface epithelium superficial to the muscularis mucosae. Submucosal edema was characterized by expansion of the submucosa by clear space or pale eosinophilic fluid, variably accompanied by dilation of lymphatic vessels and similar edematous expansion of the lamina propria. Epithelial hyperplasia was characterized by elongation of colonic glands and increased numbers of epithelial mitotic figures.

[6] = Group 3, 10 mg/kg/dose twice daily oral
[7] = Group 4, 30 mg/kg/dose twice daily oral
[8] = Group 5, 100 mg/kg/dose twice daily oral
[9] = all dose groups (10, 30, 100 mg/kg/dose twice daily oral)

With C[C@H](NC(=O)C(=O)Nc1c(F)cccc1F)C(=O)N[C@@H](CCC(=O)O)C(=O)COc1c(F)c(F)cc(F)c1F [Example 6, (S)-4-((S)-2-(2-((2,6-Difluorophenyl)amino)-2-oxoacetamido)propanamido)-5-oxo-6-(2,3,5,6-tetrafluorophenoxy)hexanoic acid] the IC50 [1] was at least 1 µM, the inhibition at 10 µM [2] was at most 10% and the “inhibition of the in vivo production of IL-1β” value [3] was “statistically significant inhibition”. The “inhibition of the in vivo production of IL 18” value [4] was “statistically significant inhibition”, the “body weights, onset of significant improvement” value [5, 6] was “significantly improved beginning on DAY 4” and the “colon histology: Edema, Submucosal, Mean” value [5, 6] was 3.2. The “colon histology: Erosion/ Ulceration, Mean” value [5, 6] was 4.0, the “colon histology: Hyperplasia, Epithelial, Mean” value (“colon histology: Hyperplasia” for short) [5, 6] was 3.4 and the “colon histology: Necrosis, Mucosal/ Gland Loss, Mean” value [5, 6] was 4.0. The “colon histology: SUM Score, Mean” value [5, 6] was 19.3, the “colon histology: Subacute Inflammation, Mucosal/ Submucosal, Mean” value (“colon histology … Mucosal/ Submucosal, Mean” for short) [5, 6] was 4.3 and the “colon histology: Subacute Inflammation, Transmural/ Serosal, Mean” value (“colon histology … Transmural/ Serosal, Mean” below) [5, 6] was 3.9. It also gave an average animal weight, Mean ([5]; Group 3, 10 mpk twice daily oral, study day 0) of 241 g, an average animal weight, Mean ([5]; Group 3, 10 mpk twice daily oral, study day 1) of 236 g and an average animal weight, Mean ([5]; Group 3, 10 mpk twice daily oral, study day 2) of 223 g. For the same compound, the average animal weight, Mean ([5]; Group 3, 10 mpk twice daily oral, study day 3) was 218 g, the average animal weight, Mean ([5]; Group 3, 10 mpk twice daily oral, study day 4) was 218 g and the average animal weight, Mean ([5]; Group 3, 10 mpk twice daily oral, study day 5) was 222 g. The average animal weight, Mean ([5]; Group 3, 10 mpk twice daily oral, study day 6) was 227 g, the average animal weight, Mean ([5]; Group 3, 10 mpk twice daily oral, study day 7) was 228 g and the average animal weight, Mean ([5]; Group 3, 10 mpk twice daily oral, study day −1) was 256 g. For the same compound, the average animal weight, Mean ([5]; Group 3, 10 mpk twice daily oral, study day −5) was 222 g, the “body weights, onset of significant improvement” value [5, 7] was “statistically significantly improved body weights starting on DAY 5” and the “reduction in overall colonic score” value [5, 7] was 40%. The “colon histology: Edema, Submucosal, Mean” value [5, 7] was 2.6, the “colon histology: Erosion/ Ulceration, Mean” value [5, 7] was 3.4 and the “colon histology: Hyperplasia” value [5, 7] was 3.1. The “colon histology: Necrosis, Mucosal/ Gland Loss, Mean” value [5, 7] was 3.4, the “colon histology: SUM Score, Mean” value [5, 7] was 17.6 and the “colon histology … Mucosal/ Submucosal, Mean” value [5, 7] was 3.9. For the same compound, the “colon histology … Transmural/ Serosal, Mean” value [5, 7] was 3.2, the average animal weight, Mean ([5]; Group 4, 30 mpk twice daily oral, study day 0) was 234 g and the average animal weight, Mean ([5]; Group 4, 30 mpk twice daily oral, study day 1) was 228 g. For the same compound, the average animal weight, Mean ([5]; Group 4, 30 mpk twice daily oral, study day 2) was 215 g, the average animal weight, Mean ([5]; Group 4, 30 mpk twice daily oral, study day 3) was 214 g and the average animal weight, Mean ([5]; Group 4, 30 mpk twice daily oral, study day 4) was 216 g. For the same compound, the average animal weight, Mean ([5]; Group 4, 30 mpk twice daily oral, study day 5) was 218 g, the average animal weight, Mean ([5]; Group 4, 30 mpk twice daily oral, study day 6) was 220 g and the average animal weight, Mean ([5]; Group 4, 30 mpk twice daily oral, study day 7) was 223 g. For the same compound, the average animal weight, Mean ([5]; Group 4, 30 mpk twice daily oral, study day −1) was 248 g, the average animal weight, Mean ([5]; Group 4, 30 mpk twice daily oral, study day −5) was 222 g and the “body weights, onset of significant improvement” value [5, 8] was “statistically significantly improved body weights starting on DAY 5”. For the same compound, the “colon histology: Edema, Submucosal, Mean” value [5, 8] was 3.0, the “colon histology: Erosion/ Ulceration, Mean” value [5, 8] was 3.6 and the “colon histology: Hyperplasia” value [5, 8] was 3.0. For the same compound, the “colon histology: Necrosis, Mucosal/ Gland Loss, Mean” value [5, 8] was 3.6, the “colon histology: SUM Score, Mean” value [5, 8] was 17.5 and the “colon histology … Mucosal/ Submucosal, Mean” value [5, 8] was 3.9. The “colon histology … Transmural/ Serosal, Mean” value [5, 8] was 3.4, the average animal weight, Mean ([5]; Group 5, 100 mpk twice daily oral, study day 0) was 232 g and the average animal weight, Mean ([5]; Group 5, 100 mpk twice daily oral, study day 1) was 231 g. For the same compound, the average animal weight, Mean ([5]; Group 5, 100 mpk twice daily oral, study day 2) was 219 g, the average animal weight, Mean ([5]; Group 5, 100 mpk twice daily oral, study day 3) was 213 g and the average animal weight, Mean ([5]; Group 5, 100 mpk twice daily oral, study day 4) was 217 g. The average animal weight, Mean ([5]; Group 5, 100 mpk twice daily oral, study day 5) was 220 g, the average animal weight, Mean ([5]; Group 5, 100 mpk twice daily oral, study day 6) was 222 g and the average animal weight, Mean ([5]; Group 5, 100 mpk twice daily oral, study day 7) was 225 g. The average animal weight, Mean ([5]; Group 5, 100 mpk twice daily oral, study day −1) was 246 g, the average animal weight, Mean ([5]; Group 5, 100 mpk twice daily oral, study day −5) was 222 g and the “SUM scores of colon histological parameters” value [5, 9] was “statistically significant improvement”. For the same compound, the overall colonic score [5, 9] was “statistically significant improvement”.
